Test results: patent publication US5607926A, “Cephalosporin antibiotics” (Microcide Pharmaceuticals, Inc., priority 1995, dated 1997)
Values after ≈ are worked out from the molar mass of the structure shown. Like-named read-outs stand apart in the source and are kept apart here.

Experiments:
Type in all cases: cell-based
P. aeruginosa ATCC 27853 = test: In vitro antibacterial evaluation, MIC by agar dilution, P. aeruginosa ATCC 27853; settings: Pseudomonas aeruginosa, ATCC27853, read-out: MIC
How it was run: (§1)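 Log-phase cultures (4-6 h broth growth) are adjusted to 0.5 McFarland and diluted to give roughly 10^4 cfu per 1 μL spot. Spots go onto Mueller-Hinton agar containing test compound in two-fold dilutions (128 to ≤0.25 μg/mL), then plates incubate 16-20 hours at 35°-36° C before MIC reading.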

E. faecalis ATCC 29212 = test: In vitro antibacterial evaluation, MIC by agar dilution, E. faecalis ATCC 29212; settings: Enterococcus faecalis, ATCC29212; E. faecalis ATCC 29212; read-out: MIC
How it was run: as §1

E. faecium ATCC 35667 = test: In vitro antibacterial evaluation, MIC by agar dilution, E. faecium ATCC 35667; settings: Enterococcus faecium, ATCC35667, read-out: MIC
How it was run: as §1

S. haemolyticus (Meth^R) = test: In vitro antibacterial evaluation, MIC by agar dilution, S. haemolyticus; settings: Staphylococcus haemolyticus, read-out: MIC
How it was run: as §1

E. coli ATCC 25922 = test: In vitro antibacterial evaluation, MIC by agar dilution, E. coli ATCC 25922; settings: Escherichia coli, ATCC25922, read-out: MIC
How it was run: as §1

[1] = test system: X. maltophilia ATCC 13637; test: In vitro antibacterial evaluation, MIC by agar dilution, X. maltophilia ATCC 13637; settings: Stenotrophomonas maltophilia, ATCC13637
Description: The compounds of the invention were evaluated against several β-lactamresistant bacteria strains by determining the minimum inhibitory concentration (MIC, μg/ml) of each compound with respect to each strain. The MIC, the lowest concentration of antibiotic which inhibits growth of the test organism, was determined by the agar dilution method.
To determine the MIC for bacterial isolates, the test compound was incorporated in a series of two-fold dilutions into liquified Mueller-Hinton agar. Upon solidification, a number of different bacterial strains were spot inoculated with a replicating device onto the agar surface. […] The procedures used in these studies have been standardized by the National Committee for Clinical Laboratory Standards (NCCLS), as per the NCCLS publication entitled METHODS FOR DILUTION ANTIMICROBIAL SUSCEPTIBILITY TESTS (1991), which is incorporated herein by reference.
Aliquots of antimicrobial agents were prepared in phosphate buffered saline (PBS) at pH 7.2. Tween 20 or DMSO was used as a solubilizing vehicle as needed. Standard methods of vortexing, sonicating and gentle heat were used to facilitate solubilizing the test agent. Typically, the concentration of the stock solution was 10× that of the highest drug concentration tested. A 1.28 mg/mL stock solution was used with a subsequent highest working concentration of 128 μg/mL. Serial two-fold dilutions were done through ≤0.25 μg/mL. Each drug level was tested in duplicate. Two-fold drug dilutions were done in sterile 50 mL tubes with a final drug volume of 5 mL. Upon the addition of 45 mL of molten agar, a 10-fold dilution resulted. Two, 25 mL. plates were then poured into 15×150 mm square Petri plates with grids and allowed to harden.
A control plate with a reference drug, either cefotaxime, vancomycin or imipenem, was used as the positive growth control. Stock concentrations of reference antibiotics were prepared and frozen at -80° C. Upon preparation, the control plates were sealed and stored in the refrigerator for up to 1 week prior to use; however, imipenem control plates had to be prepared just prior to use. All test plates were used within 24 hours of preparation.
Satisfactory results were obtained where the inoculum contained about 10^4 colony forming units (cfu) ±0.5 logs. Starting with pure cultures of the test isolates on agar plates, a few isolated colonies were transferred to a tube of nutrient broth and allowed to grow 4-6 hours at 35°-36° C. to reach log-phase growth. Dropwise addition of the broth culture to PBS was done to match a 0.5 McFarland turbidity standard equal to 10^8 cfu/mL. This was further diluted ten-fold in PBS to reach a working inoculum concentration of 10^7 cfu/mL. When 1 μL of the working inoculum was applied to the agar surface a concentration of about 10^4 cfu per spot was obtained.
Disposable sterile 1 μL loops were used to inoculate test plates, with each isolate in a designated grid on the agar plate. An alternate method of inoculation involved the use of a replica plater, a device with 48 steel pins allowing the simultaneous inoculation of multiple isolates. After the spots had dried, the plates were incubated at 35°-36° C. for 16-20 hours. Endpoints were assessed as the minimum inhibitory concentration (MIC) of antimicrobial agent.

[2] = test system: S. aureus Col8A (Meth^S)(lac^-); test: In vitro antibacterial evaluation, MIC by agar dilution, S. aureus Col8A; settings: Staphylococcus aureus
How it was run: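 Log-phase isolates were spot-inoculated at about 10^4 cfu onto Mueller-Hinton agar carrying duplicate two-fold compound levels, 128 μg/mL to ≤0.25 μg/mL, following NCCLS (1991). Plates were read after 16-20 h at 35°-36° C. The lowest growth-inhibiting concentration gave the MIC (μg/ml).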

[3] = test system: S. epidermidis ATCC 31432; test: In vitro antibacterial evaluation, MIC by agar dilution, S. epidermidis ATCC 31432; settings: Staphylococcus epidermidis, ATCC31432; S. epidermidis ATCC 31432; read-out: MIC
How it was run: as §1

S. aureus ATCC 25923 = test: In vitro antibacterial evaluation, MIC by agar dilution, S. aureus ATCC 25923; settings: Staphylococcus aureus, ATCC25923; S. aureus ATCC 25923; read-out: MIC
How it was run: as §1

S. aureus ATCC 29213 = test: In vitro antibacterial evaluation, MIC by agar dilution, S. aureus ATCC 29213; settings: Staphylococcus aureus, ATCC29213
How it was run: as §1

[4] = test system: S. aureus 76 (Meth^R)(lac^+); test: In vitro antibacterial evaluation, MIC by agar dilution, S. aureus 76; settings: Staphylococcus aureus, read-out: MIC
How it was run: as §1

[5] = S. aureus ATCC 29213, read-out: MIC

Structure (SMILES)	MIC (P. aeruginosa ATCC 27853) [µg/mL]	MIC (E. faecalis ATCC 29212) [µg/mL]	MIC (E. faecium ATCC 35667) [µg/mL]	MIC (S. haemolyticus (Meth^R)) [µg/mL]	MIC (E. coli ATCC 25922) [µg/mL]	MIC [1] [µg/mL]	MIC [2] [µg/mL]	MIC [3] [µg/mL]	MIC (S. aureus ATCC 25923) [µg/mL]	MIC (S. aureus ATCC 29213; [5]) [µg/mL]	MIC [4] [µg/mL]	MIC (S. aureus ATCC 29213) [µg/mL]
O=C(Cc1ccccc1)N[C@@H]1C(=O)N2C(C(=O)O)=C(Sc3ccc(Br)cc3)CS[C@H]12 [Cmpd 5, (7R)-7-[(Phenylacetyl)amino]-3-(p-bromophenylthio)-3-cephem-4-carboxylic acid]	> 32	2 (≈ 3.96 µM)	4 (≈ 7.91 µM)	16 (≈ 31.7 µM)	> 32	> 32	0.03 (≈ 0.0594 µM)	< 0.015	< 0.015	0.03 (≈ 0.0594 µM)	16 (≈ 31.7 µM)	–
O=C(Cc1ccccc1)N[C@@H]1C(=O)N2C(C(=O)O)=C(Sc3ccc(-c4ccccc4)cc3Br)CS[C@H]12 [Cmpd 11, (7R)-7-[(Phenylacetyl)amino]-3-(2-bromo-4-biphenylthio)-3-cephem-4-carboxylic acid]	> 32	2 (≈ 3.44 µM)	4 (≈ 6.88 µM)	4 to 8 (≈ 6.88 to 13.8 µM)	> 32	> 32	0.06 (≈ 0.103 µM)	0.03 (≈ 0.0516 µM)	< 0.015	0.125 (≈ 0.215 µM)	4 (≈ 6.88 µM)	–
O=C(Cc1ccccc1)N[C@@H]1C(=O)N2C(C(=O)O)=C(Sc3ccc(-c4ccccc4)cc3F)CS[C@H]12 [Cmpd 13, (7R)-7-[(Phenylacetyl)amino]-3-(2-fluoro-4-biphenylthio)-3-cephem-4-carboxylic acid]	> 32	2 (≈ 3.84 µM)	4 (≈ 7.68 µM)	16 (≈ 30.7 µM)	> 32	> 32	0.06 (≈ 0.115 µM)	0.03 (≈ 0.0576 µM)	< 0.015	0.06 (≈ 0.115 µM)	16 (≈ 30.7 µM)	–
O=C(Cc1ccccc1)N[C@@H]1C(=O)N2C(C(=O)O)=C(Sc3ccc(Br)cc3-c3ccccc3)CS[C@H]12 [Cmpd 14, (7R)-7-[(Phenylacetyl)amino]-3-(4-bromo-2-biphenylthio)-3-cephem-4-carboxylic acid]	> 32	2 (≈ 3.44 µM)	1 (≈ 1.72 µM)	8 (≈ 13.8 µM)	> 32	> 32	0.25 (≈ 0.43 µM)	0.06 (≈ 0.103 µM)	0.06 (≈ 0.103 µM)	–	4 (≈ 6.88 µM)	0.25 (≈ 0.43 µM)
O=C(Cc1ccccc1)N[C@@H]1C(=O)N2C(C(=O)O)=C(Sc3ccccc3Cl)CS[C@H]12 [Cmpd 15, (7R)-7-[(Phenylacetyl)amino]-3-(o-chlorophenylthio)-3-cephem-4-carboxylic acid]	> 32	2 (≈ 4.34 µM)	2 (≈ 4.34 µM)	16 (≈ 34.7 µM)	> 32	> 32	0.06 (≈ 0.13 µM)	0.03 (≈ 0.0651 µM)	0.03 (≈ 0.0651 µM)	0.06 (≈ 0.13 µM)	8 (≈ 17.4 µM)	–
